Patent publication US8231916B2, “Use of a rice protein hydrolysate as pigmenting active principle” (Laboratoires Expanscience, priority 2006, dated 2012)

Test system: human cutaneous fibroblasts
Experiment: Intracellular glutathione (GSH) in dermal fibroblasts irradiated with UVA
Format: cell-based
Details: 5 mM, 15 J/cm^2 UVA
Description: Dermal fibroblasts were inoculated in 60 mm petri dishes. The cells were pre-treated for 18 hours with 5 mM rice peptides or N-acetyl-cysteine (NAC=reference antioxidant molecule) and then irradiated at a dose of 15 J/cm^2 UVA. After irradiation, the fibroblasts were incubated for an additional 3 h at 37° C.
At the end of the treatment, two series of samples were collected in order to evaluate: • a. Total quantity of proteins according to the Lowry method. • b. The ratio of intracellular glutathione by assay (commercial kit).

## CC(=O)N[C@@H](CS)C(=O)O [NAC, N-acetyl-cysteine]
  GSH (μmol/g proteins): 28.209 μmol/g proteins
  GSH, % increase compared to irradiated control cells: 29%
18 hours pre-treatment
  GSH: 21.10 µM
